Measured values published in PubChem BioAssay AID248 (DTP/NCI, 2004).
Where “and” joins values, the source holds several entries; their conditions need not be identical. Equal entries are not always repeated. Inconclusive results and toxic doses are left out.

Tested on: L1210 leukemia ip in BDF1 mice, survival T/C
Experiment: NCI In Vivo Anticancer Drug Screen. Data for tumor model L1210 Leukemia (intraperitoneal) in B6D2F1 (BDF1) mice
Details: endpoint: mean survival time, higher = longer survival
Summary of the method: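 Tumor cells were implanted, animals were treated, and survival was followed. The result divides the treated measurement by the vehicle-control measurement.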

[1] = dose: 100.0 mg/kg/injection, schedule: Q04DX003 (ip), vehicle: saline with Tween-80
[2] = dose: 200.0 mg/kg/injection, schedule: Q04DX003 (ip), vehicle: saline with Tween-80
[3] = dose: 400.0 mg/kg/injection, schedule: Q04DX003 (ip), vehicle: saline with Tween-80
[4] = dose: 50.0 mg/kg/injection, schedule: Q01DX001 (ip), vehicle: saline
[5] = dose: 100.0 mg/kg/injection, schedule: Q01DX001 (ip), vehicle: saline
[6] = dose: 200.0 mg/kg/injection, schedule: Q01DX001 (ip), vehicle: saline
[7] = dose: 100.0 mg/kg/injection, schedule: Q04DX003 (ip), vehicle: Klucel (hydroxypropylcellulose) (HPC)
[8] = dose: 200.0 mg/kg/injection, schedule: Q04DX003 (ip), vehicle: Klucel (hydroxypropylcellulose) (HPC)
[9] = dose: 400.0 mg/kg/injection, schedule: Q04DX003 (ip), vehicle: Klucel (hydroxypropylcellulose) (HPC)
[10] = dose: 100.0 mg/kg/injection, schedule: Q04DX002 (ip), vehicle: Klucel (hydroxypropylcellulose) (HPC)
[11] = dose: 200.0 mg/kg/injection, schedule: Q04DX002 (ip), vehicle: Klucel (hydroxypropylcellulose) (HPC)
[12] = dose: 400.0 mg/kg/injection, schedule: Q04DX002 (ip), vehicle: Klucel (hydroxypropylcellulose) (HPC)
[13] = dose: 100.0 mg/kg/injection, schedule: Q01DX001 (ip), vehicle: other
[14] = dose: 100.0 mg/kg/injection, schedule: Q01DX009 (ip), vehicle: saline with Tween-80
[15] = dose: 200.0 mg/kg/injection, schedule: Q01DX009 (ip), vehicle: saline with Tween-80
[16] = dose: 100.0 mg/kg/injection, schedule: Q04DX002 (ip), vehicle: saline with Tween-80
[17] = dose: 400.0 mg/kg/injection, schedule: Q04DX002 (ip), vehicle: saline with Tween-80
[18] = dose: 100.0 mg/kg/injection, schedule: Q01DX009 (ip), vehicle: Klucel (hydroxypropylcellulose) (HPC)
[19] = dose: 400.0 mg/kg/injection, schedule: Q01DX001 (ip), vehicle: saline
[20] = dose: 25.0 mg/kg/injection, schedule: Q04DX002 (ip), vehicle: saline with Tween-80
[21] = dose: 50.0 mg/kg/injection, schedule: Q04DX002 (ip), vehicle: saline with Tween-80
[22] = dose: 200.0 mg/kg/injection, schedule: Q01DX009 (ip), vehicle: Klucel (hydroxypropylcellulose) (HPC)
[23] = dose: 400.0 mg/kg/injection, schedule: Q01DX009 (ip), vehicle: Klucel (hydroxypropylcellulose) (HPC)
[24] = dose: 5.0 mg/kg/injection, schedule: Q01DX001 (ip), vehicle: saline
[25] = dose: 10.0 mg/kg/injection, schedule: Q01DX001 (ip), vehicle: saline
[26] = dose: 20.0 mg/kg/injection, schedule: Q01DX001 (ip), vehicle: saline

CCOC(=O)CCc1c(C(=O)OCC)[nH]c(C)c1C(=O)OC(C)(C)C
T/C (dose: 100.0 mg/kg/injection, schedule: Q01DX001 (ip), vehicle: Klucel (hydroxypropylcellulose) (HPC)): 105 % of control | T/C (dose: 200.0 mg/kg/injection, schedule: Q01DX001 (ip), vehicle: Klucel (hydroxypropylcellulose) (HPC)): 124 % of control | T/C (dose: 400.0 mg/kg/injection, schedule: Q01DX001 (ip), vehicle: Klucel (hydroxypropylcellulose) (HPC)): 95 % of control

O=C(N1CCN=C1C(Cl)(Cl)Cl)C(Cl)(Cl)Cl
T/C [1]: 100 % of control | T/C [2]: 102 % of control | T/C [3]: 102 % of control

C=C(C)CCc1ccccc1
T/C [4]: 102 % of control | T/C [5]: 104 % of control | T/C [6]: 96 % of control

CCCCOC1CC2c3ccccc3C1c1cccc[n+]12 (stereo not given)
T/C (dose: 12.5 mg/kg/injection, schedule: Q01DX009 (ip), vehicle: saline): 111 % of control and 102 % of control | T/C (dose: 12.5 mg/kg/injection, schedule: Q04DX003 (ip), vehicle: saline): 94 % of control and 101 % of control and 100 % of control | T/C (dose: 25.0 mg/kg/injection, schedule: Q01DX009 (ip), vehicle: saline): 104 % of control and 98 % of control | T/C (dose: 25.0 mg/kg/injection, schedule: Q04DX003 (ip), vehicle: saline): 100 % of control and 101 % of control | T/C (dose: 50.0 mg/kg/injection, schedule: Q04DX003 (ip), vehicle: saline): 94 % of control and 88 % of control and 103 % of control

CS(=O)(=O)OCCN(CCOS(C)(=O)=O)c1ccc(C=Nc2cc(Br)c(O)c(Br)c2)c(Cl)c1
T/C [7]: 98 % of control | T/C [8]: 98 % of control | T/C [9]: 97 % of control

S=P1(c2ccccc2)Nc2ccccc2N1c1ccccc1 (stereo not given)
T/C (dose: 100.0 mg/kg/injection, schedule: Q04DX002 (ip), vehicle: DMSO): 114 % of control | T/C (dose: 200.0 mg/kg/injection, schedule: Q04DX002 (ip), vehicle: DMSO): 86 % of control

Nc1nc(N)c(N=O)c(Nc2ccc(O)cc2)n1
T/C [7]: 103 % of control | T/C (dose: 200.0 mg/kg/injection, schedule: Q01DX Z (ip), vehicle: methylcellulose (MC)): 91 % of control | T/C [8]: 97 % of control | T/C [9]: 100 % of control

CCOc1nc(=O)n(C2CCOC2=O)cc1F (stereo not given)
T/C (dose: 75.0 mg/kg/injection, schedule: Q01DX009 (ip), vehicle: other): 103 % of control | T/C (dose: 100.0 mg/kg/injection, schedule: Q04DX003 (ip), vehicle: saline): 92 % of control | T/C (dose: 150.0 mg/kg/injection, schedule: Q01DX009 (ip), vehicle: other): 103 % of control | T/C (dose: 200.0 mg/kg/injection, schedule: Q04DX003 (ip), vehicle: saline): 106 % of control | T/C (dose: 300.0 mg/kg/injection, schedule: Q01DX009 (ip), vehicle: other): 100 % of control | T/C (dose: 400.0 mg/kg/injection, schedule: Q04DX003 (ip), vehicle: saline): 95 % of control

C/C=C\C=N\NC(=O)C(=O)N/N=C/C=C\C
T/C [10]: 97 % of control | T/C [11]: 91 % of control | T/C [12]: 112 % of control

O=[N+]([O-])CC(C[N+](=O)[O-])C(F)(F)C(F)(F)C(F)(F)F
T/C [13]: 101 % of control

[B-][N+](CC)(CC)c1ccccc1
T/C (dose: 50.0 mg/kg/injection, schedule: Q01DX009 (ip), vehicle: saline with Tween-80): 92 % of control | T/C [14]: 95 % of control | T/C [15]: 92 % of control

O=C(NCCF)NC1CCSCC1
T/C [13]: 112 % of control | T/C (dose: 200.0 mg/kg/injection, schedule: Q01DX001 (ip), vehicle: other): 103 % of control | T/C (dose: 400.0 mg/kg/injection, schedule: Q01DX001 (ip), vehicle: other): 98 % of control

CCOC(=O)/C(C#N)=C/c1cccn1Cc1ccc2ccccc2c1
T/C [16]: 101 % of control | T/C (dose: 200.0 mg/kg/injection, schedule: Q04DX002 (ip), vehicle: saline with Tween-80): 90 % of control | T/C [17]: 90 % of control

COC1OC2COc3ccccc3OC2C(NC#N)C1OC (stereo not given)
T/C (dose: 25.0 mg/kg/injection, schedule: Q01DX009 (ip), vehicle: Klucel (hydroxypropylcellulose) (HPC)): 102 % of control | T/C (dose: 50.0 mg/kg/injection, schedule: Q01DX009 (ip), vehicle: Klucel (hydroxypropylcellulose) (HPC)): 96 % of control | T/C [18]: 93 % of control and 87 % of control

CC(=C1C2CCC1C(C(=O)N(C)C)C2C(=O)N(C)C)C(Cl)(Cl)Cl (stereo not given)
T/C [10]: 94 % of control | T/C [11]: 110 % of control | T/C [12]: 90 % of control

C/C(=N\N=C(/C)c1cccc(N)c1)c1cccc(N)c1
T/C [6]: 87 % of control | T/C [19]: 87 % of control

CCOC(=O)C(C(C)=O)C(c1ccc2c(c1)OCO2)C(C(C)=O)C(=O)O (stereo not given)
T/C (dose: 25.6 mg/kg/injection, schedule: Q04DX002 (ip), vehicle: saline with Tween-80): 100 % of control | T/C (dose: 64.0 mg/kg/injection, schedule: Q04DX002 (ip), vehicle: saline with Tween-80): 96 % of control | T/C (dose: 160.0 mg/kg/injection, schedule: Q04DX002 (ip), vehicle: saline with Tween-80): 103 % of control | T/C [17]: 107 % of control

CCCCCCCC(CCCCCC)(OO)C(=O)OC (stereo not given)
T/C [20]: 100 % of control | T/C [21]: 95 % of control | T/C [16]: 91 % of control

CCCn1c2ccccc2c2ccccc21
T/C [18]: 96 % of control | T/C [22]: 97 % of control | T/C [23]: 94 % of control

O=C(Nc1ccc([N+](=O)[O-])cc1)c1ccc([N+](=O)[O-])cc1
T/C [1]: 94 % of control | T/C [2]: 94 % of control | T/C [3]: 89 % of control

CC(=O)/C=C\c1ccc([N+](=O)[O-])o1
T/C [10]: 115 % of control | T/C [11]: 89 % of control

NC(=O)N/N=C/c1ccccc1N
T/C [14]: 94 % of control | T/C [15]: 94 % of control | T/C (dose: 400.0 mg/kg/injection, schedule: Q01DX009 (ip), vehicle: saline with Tween-80): 96 % of control

CCOC(=O)C1=NC=NC1=[N+]=[N-]
T/C [24]: 92 % of control | T/C [25]: 94 % of control | T/C [26]: 100 % of control

Cc1ccc([As+](c2ccccc2)(c2ccccc2)c2ccccc2)cc1
T/C [24]: 101 % of control | T/C [25]: 95 % of control | T/C [26]: 96 % of control

Nc1nc(N)nc(-c2ccc(-n3nnc4ccccc4c3=O)cc2)n1
T/C [18]: 90 % of control | T/C [7]: 96 % of control | T/C [22]: 93 % of control | T/C [8]: 96 % of control | T/C [23]: 90 % of control | T/C [9]: 91 % of control

CCCCCCCCCCCC(=O)OCC1OC2C(Oc3nc(=N)ccn32)C1OC(=O)CCCCCCCCCCC (stereo not given)
T/C (dose: 12.5 mg/kg/injection, schedule: Q01DX009 (ip), vehicle: water): 157 % of control | T/C (dose: 25.0 mg/kg/injection, schedule: Q01DX009 (ip), vehicle: water): 210 % of control | T/C (dose: 50.0 mg/kg/injection, schedule: Q01DX009 (ip), vehicle: water): 165 % of control

COc1cccc(-c2ccc(N=N/C(=N/Nc3ccccc3)c3ccccc3)c(OC)c2)c1
T/C [4]: 101 % of control | T/C [5]: 95 % of control | T/C [6]: 97 % of control | T/C [19]: 89 % of control

Cc1cc(N)c(S)cc1C
T/C (dose: 12.5 mg/kg/injection, schedule: Q04DX002 (ip), vehicle: saline with Tween-80): 108 % of control | T/C [20]: 90 % of control | T/C [4]: 94 % of control | T/C [21]: 101 % of control | T/C [5]: 91 % of control

OCC1OC(n2cnc3c(=S)nc(NO)[nH]c32)C(O)C1O (stereo not given)
T/C (dose: 12.5 mg/kg/injection, schedule: Q01DX005 (ip), vehicle: saline): 165 % of control | T/C (dose: 50.0 mg/kg/injection, schedule: Q01DX005 (ip), vehicle: saline): 88 % of control | T/C (dose: 100.0 mg/kg/injection, schedule: Q01DX005 (ip), vehicle: saline): 107 % of control
